According to patent publication US11186567B2, “AMPA receptor potentiators” (UNIVERSITY COLLEGE CARDIFF CONSULTANTS LIMITED, priority 2017, dated 2021):

Key:
[1] = Intrinsic clearance (CLi), rat; type: in vitro ADME; details: 0.5 mg/mL microsomes, 2 μM test article, 2 mM NADPH, 37° C.
Description: (§1) For example, compounds of the invention preferably have a CLi of less than 100 μL/min/mg in rat and human microsomes. The CLi can be measured using known methods, such as those illustrated in the Examples.
(§2) The in-vitro intrinsic clearance of the compounds was measured in rat and human […] using the following assay.
(§3) 5 μL microsomes (20 mg/ml, Corning BV) diluted into 95 μL PBS (pH 7) containing 0.2% DMSO and 4 μM test article were incubated at 37° C. shaking at 1000 rpm prior the addition of 100 μL of pre-warmed 4 mM NADPH in PBS (final concentrations: 0.5 mg/mL microsomes, 2 μM test article, 0.1% DMSO and 2 mM NADPH). After mixing thoroughly the T=0 sample (40 μL) was immediately quenched into ice cold methanol containing 2 μM internal standard (Carbemazapine). Three further samples were quenched in the same way at 3, 9 and 30 min. Samples were incubated on ice for 30 min before centrifugation at 4000 rpm+ for […]. The supernatant was analysed via LCMS and the test article:carbemazapine peak area ratios calculated to determine the rate of substrate depletion.

[2] = Intrinsic clearance (CLi), human; type: in vitro ADME; details: 0.5 mg/mL microsomes, 2 μM test article, 2 mM NADPH, 37° C.
Description: as §1, §2, §3

Row | CLi Rat [1] [µL/min/mg] | CLi human [2] [µL/min/mg] | Structure (SMILES)
1 | 70.2 | 6.2 | Cc1c(C(F)(F)F)nn(-c2ccc(CN3CCCC3=O)cc2)c1C#N [Example 6, 4-Methyl-2-[4-[(2-oxopyrrolidin-1-yl)methyl]phenyl]-5-(trifluoromethyl)pyrazole-3-carbonitrile]
2 | 8.4 | 4.3 | Cc1c(CO)c(C(F)(F)F)nn1-c1ccc(CN2CCCC2=O)cc1 [Example 1, 1-[[4-[4-(Hydroxymethyl)-5-methyl-3-(trifluoromethyl)pyrazol-1-yl]phenyl]methyl]pyrrolidin-2-one]
3 | 878 | 71 | Cc1c(Cl)c(C(F)(F)F)nn1-c1ccc(CN2CCCC2=O)cc1 [Comparative Example, reference compound]
4 | 37.7 | 31.1 | Cc1c(C(F)(F)F)nn(-c2ccc(CN3CCCC3=O)cc2)c1C(C)O (centres unmarked) [Example 7, 1-[[4-[5-(1-Hydroxyethyl)-4-methyl-3-(trifluoromethyl)pyrazol-1-yl]phenyl]methyl]pyrrolidin-2-one]
5 | 87.4 | 47.4 | COCc1c(C)c(C(F)(F)F)nn1-c1ccc(CN2CCCC2=O)cc1 [Example 5, 1-[[4-[5-(Methoxymethyl)-4-methyl-3-(trifluoromethyl)pyrazol-1-yl]phenyl]methyl]pyrrolidin-2-one]
6 | 3.7 | 2.6 | CCc1c(CO)c(C(F)(F)F)nn1-c1ccc(CN2CCCC2=O)cc1 [Example 2, 1-[[4-[5-Ethyl-4-(hydroxymethyl)-3-(trifluoromethyl)pyrazol-1-yl]phenyl]methyl]pyrrolidin-2-one]
7 | 2.2 | 7.9 | CC(C)c1c(CO)c(C(F)(F)F)nn1-c1ccc(CN2CCCC2=O)cc1 [Example 3, 1-[[4-[4-(Hydroxymethyl)-5-isopropyl-3-(trifluoromethyl)pyrazol-1-yl]phenyl]methyl]pyrrolidin-2-one]
